Reference: ChEMBL document CHEMBL3120047, “Ligand bioactive conformation plays a critical role in the design of drugs that target the hepatitis C virus NS3 protease” (J Med Chem, 2014)
Non-standard residues stand in square brackets, D forms with d. Residues, ends and D or L forms follow the SMILES beside them. *: point of attachment. Hyp = O=C(O)[C@@H]1C[C@@H](O)CN1; Nva = CCC[C@H](N)C(=O)O; Bn = c1ccc(C*)cc1

test: Inhibition of HCV genotype 1b NS3/NS4A protease using DDIVPCSMSYTW as substrate by radiometric enzymatic assay; parameters: species or system Hepatitis C virus subtype 1b

Ki [nM]	IC50 [nM]	Compound
20		C=C[C@@H]1C[C@]1(NC(=O)[C@@H]1C[C@@H](Oc2cc(-c3ccccc3)nc3cc(OC)ccc23)CN1C(=O)[C@@H](NC(=O)OC(C)(C)C)C(C)(C)C)C(=O)O
28000		C=C[C@@H]1C[C@]1(NC(=O)[C@@H]1C[C@@H](Oc2cc(-c3ccccc3)nc3cc(OC)ccc23)CN1C(C)=O)C(=O)O
140		C=C[C@@H]1C[C@]1(NC(=O)[C@@H]1C[C@@H](Oc2ccnc3ccccc23)CN1C(=O)[C@@H](NC(=O)OC(C)(C)C)C(C)(C)C)C(=O)O
310		C=C[C@@H]1C[C@]1(NC(=O)[C@@H]1C[C@@H](Oc2cccc3ccccc23)CN1C(=O)[C@@H](NC(=O)OC(C)(C)C)C(C)(C)C)C(=O)O
29000		C=C[C@@H]1C[C@]1(NC(=O)[C@@H]1C[C@@H](Oc2ccncc2)CN1C(=O)[C@@H](NC(=O)OC(C)(C)C)C(C)(C)C)C(=O)O
29000		C=C[C@@H]1C[C@]1(NC(=O)[C@@H]1C[C@@H](Oc2ccccc2)CN1C(=O)[C@@H](NC(=O)OC(C)(C)C)C(C)(C)C)C(=O)O
> 600000		C=C[C@@H]1C[C@]1(NC(=O)[C@@H]1CCCN1C(=O)[C@@H](NC(=O)OC(C)(C)C)C(C)(C)C)C(=O)O
350		COc1ccc2c(O[C@@H]3C[C@@H](C(=O)NC4(C(=O)O)CC4)N(C(=O)[C@@H](NC(=O)OC(C)(C)C)C(C)(C)C)C3)cc(-c3ccccc3)nc2c1
56000		COc1ccc2c(O[C@@H]3C[C@@H](C(=O)NCC(=O)O)N(C(=O)[C@@H](NC(=O)OC(C)(C)C)C(C)(C)C)C3)cc(-c3ccccc3)nc2c1
310		C=C[C@@H]1C[C@]1(NC(=O)[C@@H]1C[C@@H](Oc2cc(-c3ccccc3)nc3cc(OC)ccc23)CN1C(=O)[C@H](C)NC(=O)OC(C)(C)C)C(=O)O
3000		C=C[C@@H]1C[C@]1(NC(=O)[C@@H]1C[C@@H](Oc2cc(-c3ccccc3)nc3cc(OC)ccc23)CN1C(=O)CNC(=O)OC(C)(C)C)C(=O)O
1600		C=C[C@@H]1C[C@]1(NC(=O)[C@@H]1C[C@@H](Oc2cc(-c3ccccc3)nc3cc(OC)ccc23)CN1C(=O)CC(C)(C)C)C(=O)O
1900		CCC[C@H](NC(=O)[C@@H]1C[C@@H](OCc2ccccc2)CN1C(=O)[C@@H](NC(=O)[C@@H](NC(=O)[C@H](CC(=O)O)NC(=O)[C@H](CC(=O)O)NC(C)=O)[C@@H](C)CC)C(C)C)C(=O)O (Ac-DDIV[Hyp](Bn)[Nva]-OH)
19000	71000	H-DDIVPC-OH
